Where a name gives a salt, the structure may show the parent alone. Some results are limits rather than exact numbers.

Broadly, the IC50 is the point on the concentration scale where inhibition reaches its midpoint. The low end stands for greater potency, the high end for weaker potency.

For this assay, the target named is T1, URAT-1 transporter (Homo sapiens, UniProt Q96S37).
T1 construct: expressed in transfected cells
T1 sequence (Q96S37 with tags, fused parts or gaps): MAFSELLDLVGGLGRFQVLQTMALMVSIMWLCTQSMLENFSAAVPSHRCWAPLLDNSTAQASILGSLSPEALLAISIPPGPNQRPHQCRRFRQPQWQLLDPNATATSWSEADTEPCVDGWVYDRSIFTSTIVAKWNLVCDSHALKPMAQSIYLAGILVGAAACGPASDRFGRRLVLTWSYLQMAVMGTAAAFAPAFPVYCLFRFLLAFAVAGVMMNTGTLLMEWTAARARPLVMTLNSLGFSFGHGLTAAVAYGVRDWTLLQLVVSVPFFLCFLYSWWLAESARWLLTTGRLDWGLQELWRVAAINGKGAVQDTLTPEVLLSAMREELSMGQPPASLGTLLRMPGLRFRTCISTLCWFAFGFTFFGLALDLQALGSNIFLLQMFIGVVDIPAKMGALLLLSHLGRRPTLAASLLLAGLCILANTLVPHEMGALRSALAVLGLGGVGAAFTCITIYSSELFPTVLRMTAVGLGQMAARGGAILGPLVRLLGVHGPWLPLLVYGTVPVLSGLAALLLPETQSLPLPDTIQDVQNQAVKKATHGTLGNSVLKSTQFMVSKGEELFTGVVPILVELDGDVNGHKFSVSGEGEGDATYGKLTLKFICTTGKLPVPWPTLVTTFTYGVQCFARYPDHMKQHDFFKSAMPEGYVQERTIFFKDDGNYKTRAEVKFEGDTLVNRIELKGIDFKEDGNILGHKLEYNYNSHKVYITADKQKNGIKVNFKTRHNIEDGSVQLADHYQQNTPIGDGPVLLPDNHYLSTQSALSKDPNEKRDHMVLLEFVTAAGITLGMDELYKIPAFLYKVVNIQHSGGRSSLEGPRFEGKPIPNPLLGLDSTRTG
The assay is described as follows: URAT-1 inhibitor activity: [14C]-uric acid uptake into CHO-URAT1(L)GFP#8 (CHO#8) cells, scintillation proximity. The assay is classed as cell-based. In outline:
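CHO cells stably expressing human URAT1 long isoform C-terminally fused to eGFP, preincubated 1 hour in chloride-containing buffer, then 15 minutes with compound (0–10 μM, 0.25% DMSO) in chloride-free buffer pH 7.4. [14C]-uric acid at 30 nM final added; uptake read by scintillation proximity after three hours at room temperature, dark.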
As to `CCc1nc(C)ccc1Oc1ccc(S(=O)(=O)Nc2ncns2)cc1C#N` [compound 276, trifluoroacetic acid salt], the IC50 was > 10 µM. The figure for `COc1ccc(F)cc1Oc1ccc(S(=O)(=O)Nc2ncns2)cc1C#N` [compound 277] is > 5.43 µM; for `CC(C)Oc1ccccc1Oc1ccc(S(=O)(=O)Nc2ncns2)cc1C#N` [compound 278] it is 2.74 µM. The figure for `CCOc1ccc(Oc2ccc(S(=O)(=O)Nc3ncns3)cc2C#N)cc1` [compound 279] is > 10 µM. The figure for `CCOc1cccc(Oc2ccc(S(=O)(=O)Nc3ncns3)cc2C#N)c1` [compound 280] is 2.29 µM. Take `CCOc1ccccc1Oc1ccc(S(=O)(=O)Nc2ncns2)cc1C#N` [compound 281]: the IC50 was determined as 3.25 µM.

In the case of `COc1ccc(F)c(Oc2ccc(S(=O)(=O)Nc3ncns3)cc2C#N)c1F` [compound 282], it took 1.66 µM to reach half-maximal inhibition (IC50). The figure for `COc1c(Cl)cccc1Oc1ccc(S(=O)(=O)Nc2ncns2)cc1C#N` [compound 283] is > 8.57 µM. `COc1ccc(C)cc1Oc1ccc(S(=O)(=O)Nc2ncns2)cc1C#N` [compound 284] had an IC50 of 2.52 µM. In turn, `COc1cc(C)ccc1Oc1ccc(S(=O)(=O)Nc2ncns2)cc1C#N` [compound 285] had an IC50 of 5.59 µM. The figure for `COc1cc(F)ccc1Oc1ccc(S(=O)(=O)Nc2ncns2)cc1C#N` [compound 286] is 1.01 µM; for `COc1ccc(F)c(Oc2ccc(S(=O)(=O)Nc3ncns3)cc2C#N)c1` [compound 287] it is 1.44 µM. The figure for `Cc1c(Oc2ccc(S(=O)(=O)Nc3ncns3)cc2C#N)ccc(F)c1F` [compound 288] is 0.431 µM. The figure for `COc1cc(F)cc(Oc2ccc(S(=O)(=O)Nc3ncns3)cc2C#N)c1` [compound 289] is 0.479 µM; for `COc1ccc(Oc2ccc(S(=O)(=O)Nc3ncns3)cc2C#N)c(Cl)c1` [compound 290] it is 1.1 µM; for `N#Cc1cc(S(=O)(=O)Nc2ncns2)ccc1Oc1cccc(Cl)c1` [compound 291] it is 1.13 µM. As for `COc1cc(C)cc(Oc2ccc(S(=O)(=O)Nc3ncns3)cc2C#N)c1` [compound 292], the IC50 amounted to 1.13 µM. The figure for `COc1cccc(Oc2ccc(S(=O)(=O)Nc3ncns3)cc2C#N)c1C` [compound 293] is > 6.15 µM. Regarding `N#Cc1cc(S(=O)(=O)Nc2ncns2)ccc1Oc1ccc(F)cc1` [compound 294], half-maximal inhibition (IC50) was put at 0.888 µM.

As to `CC(C)Oc1ccc(F)cc1Oc1cc(F)c(S(=O)(=O)Nc2nncs2)cc1Cl` [compound 295], 0.478 µM corresponded to half-maximal inhibition (IC50).

In the case of `COc1cc(C#N)ccc1Oc1cc(F)c(S(=O)(=O)Nc2nncs2)cc1Cl` [compound 296], the IC50 was > 10 µM. The figure for `COc1cc(F)cc(Oc2cc(F)c(S(=O)(=O)Nc3nncs3)cc2Cl)c1` [compound 297] is 1.01 µM.

Turning to `CC(C)c1ncccc1Oc1cc(F)c(S(=O)(=O)Nc2nncs2)cc1Cl` [compound 298], the IC50 was found to be 4.39 µM.

In turn, `COc1cc(C)ccc1Oc1cc(F)c(S(=O)(=O)Nc2nncs2)cc1Cl` [compound 299] showed an IC50 of 4.37 µM. Compound `COc1ccc(C)cc1Oc1cc(F)c(S(=O)(=O)Nc2nncs2)cc1Cl` [compound 300] had an IC50 of 0.329 µM.

Compound `COc1cc(C)cc(Oc2cc(F)c(S(=O)(=O)Nc3nncs3)cc2Cl)c1` [compound 301] came in with a half-maximal inhibitory concentration (IC50) of 0.382 µM. The figure for `COc1cc(Cl)cc(Oc2cc(F)c(S(=O)(=O)Nc3nncs3)cc2Cl)c1` [compound 302] is 1.06 µM; for `COc1cccc(Cl)c1Oc1cc(F)c(S(=O)(=O)Nc2nncs2)cc1Cl` [compound 303] it is > 1.43 µM. The figure for `CCSc1ncccc1Oc1cc(F)c(S(=O)(=O)Nc2nncs2)cc1Cl` [compound 304] is 1.01 µM; for `COc1ccccc1Oc1cc(F)c(S(=O)(=O)Nc2nncs2)cc1Cl` [compound 305] it is > 5.78 µM; for `COc1cccc(Oc2cc(F)c(S(=O)(=O)Nc3nncs3)cc2Cl)c1` [compound 306] it is 2.41 µM. The figure for `CCc1ncccc1Oc1cc(F)c(S(=O)(=O)Nc2nncs2)cc1Cl` [compound 307] is > 7.19 µM.

As to `Cc1ccnc(C)c1Oc1cc(F)c(S(=O)(=O)Nc2nncs2)cc1Cl` [compound 308], the IC50 is > 10 µM.

`COc1ccc(C#N)cc1Oc1cc(F)c(S(=O)(=O)Nc2nncs2)cc1Cl` [compound 309]: the IC50 was > 10 µM. The figure for `CSc1ncccc1Oc1cc(F)c(S(=O)(=O)Nc2nncs2)cc1Cl` [compound 310] is 0.864 µM; for `Cc1cncc(Oc2cc(F)c(S(=O)(=O)Nc3nncs3)cc2Cl)c1` [compound 311] it is 1.1 µM. Turning to `COc1cc(F)ccc1Oc1cc(F)c(S(=O)(=O)Nc2nncs2)cc1Cl` [compound 312], the IC50 was > 6.45 µM.

In the case of `Cc1ccncc1Oc1cc(F)c(S(=O)(=O)Nc2nncs2)cc1Cl` [compound 313], the IC50 was 3.17 µM. The figure for `Cc1ccc(Oc2cc(F)c(S(=O)(=O)Nc3nncs3)cc2Cl)cc1` [compound 314] is > 10 µM. The figure for `COc1ccc(F)c(Oc2cc(F)c(S(=O)(=O)Nc3nncs3)cc2Cl)c1` [compound 315] is 2.19 µM; for `COc1cc(C#N)c(F)cc1Oc1cc(F)c(S(=O)(=O)Nc2nncs2)cc1Cl` [compound 316] it is > 10 µM; for `COc1ccc(Oc2cc(F)c(S(=O)(=O)Nc3nncs3)cc2Cl)c(Cl)c1` [compound 317] it is 1.63 µM. The figure for `Cc1c(Oc2cc(F)c(S(=O)(=O)Nc3nncs3)cc2Cl)ccc(F)c1F` [compound 318, 5-chloro-4-(3,4-difluoro-2-methylphenoxy)-2-fluoro-N-(1,3,4-thiadiazol-2-yl)benzenesulfonamide] is 0.145 µM. As to `COc1c(Oc2cc(F)c(S(=O)(=O)Nc3nncs3)cc2Cl)ccc(F)c1C` [compound 319], the IC50 was > 1.71 µM. The figure for `COc1ccc(Oc2cc(F)c(S(=O)(=O)Nc3nncs3)cc2Cl)cc1Cl` [compound 320] is > 7.61 µM; for `COc1cccc(C)c1Oc1cc(F)c(S(=O)(=O)Nc2nncs2)cc1Cl` [compound 321] it is 0.275 µM; for `Cc1cc(Oc2cc(F)c(S(=O)(=O)Nc3nncs3)cc2Cl)ccc1F` [compound 322] it is 2.99 µM. The figure for `COc1cccc(Oc2cc(F)c(S(=O)(=O)Nc3nncs3)cc2Cl)c1C` [compound 323] is 2.17 µM; for `COc1ccc(Oc2cc(F)c(S(=O)(=O)Nc3nncs3)cc2Cl)cc1F` [compound 324] it is 3.28 µM; for `CC(C)Oc1ccccc1Oc1cc(F)c(S(=O)(=O)Nc2nncs2)cc1Cl` [compound 325] it is 2 µM. The figure for `COc1ccc(Cl)c(Oc2cc(F)c(S(=O)(=O)Nc3nncs3)cc2Cl)c1` [compound 326] is 0.369 µM; for `COc1ccc(C)c(Oc2cc(F)c(S(=O)(=O)Nc3nncs3)cc2Cl)c1` [compound 327] it is 0.619 µM. For the compound `Cc1ccccc1Oc1cc(F)c(S(=O)(=O)Nc2nncs2)cc1Cl` [compound 328], the IC50 was > 0.83 µM.

As to `COc1c(F)ccc(Oc2cc(F)c(S(=O)(=O)Nc3nncs3)cc2Cl)c1Cl` [compound 329], half-maximal inhibition (IC50) required 0.606 µM. `O=S(=O)(Nc1nncs1)c1cc(Cl)c(Oc2cccc(Cl)c2)cc1F` [compound 330] had an IC50 of 2.39 µM.

In the case of `CCOc1cc(C)ccc1Oc1cc(F)c(S(=O)(=O)Nc2nncs2)cc1Cl` [compound 331], the half-maximal inhibitory concentration (IC50) was > 6.72 µM. Turning to `O=S(=O)(Nc1nncs1)c1cc(Cl)c(Oc2c(F)cccc2Cl)cc1F` [compound 332], the IC50 was > 2.38 µM.
